What all share (format): in vivo
The test system of data set [1] is western flower thrips (Frankliniella occidentalis). As to the kind of experiment: Test E: control of western flower thrips on Soleil bean plant, contact and/or systemic. The note with it: adult thrips, assessed after 6 days, replicated three times. Here is the method: (§1) Test compounds were formulated using a solution containing 10% acetone, 90% water and 300 ppm X-77™ Spreader Lo-Foam Formula non-ionic surfactant containing alkylarylpolyoxyethylene, free fatty acids, glycols and isopropanol (Loveland Industries, Inc. Greeley, Colo., USA). The formulated compounds were applied in 1 mL of liquid through a SUJ2 atomizer nozzle with ⅛ JJ custom body (Spraying Systems Co. Wheaton, Ill., USA) positioned 1.27 cm (0.5 inches) above the top of each test unit. All experimental compounds in these tests were sprayed at 50 ppm, and the test was replicated three times. After spraying of the formulated test compound, each test unit was allowed to dry for 1 h and then a black, screened cap was placed on top. The test units were held for 6 days in a growth chamber at 25° C. and 70% relative humidity. Plant feeding damage was then visually assessed based on foliage consumed and a pest mortality rating was also counted and calculated for each test unit.
For evaluating control of the western flower thrips (Frankliniella occidentalis) through contact and/or systemic means, the test unit consisted of a small open container with a 5-7 day old Soleil Bean plant inside. Test compounds were formulated and sprayed as described for Test A. All experimental compounds in these tests were sprayed at 250 or 50 ppm as noted, and the test was replicated three times. After spraying, the test units were allowed to dry for 1 hour and then 22-27 adult thrips were added to each unit and then a black, screened cap was placed on top. The test units were held for 6 days at 25° C. and 45-55% relative humidity. A mortality rating was assessed along with a plant damage rating for each test unit.

Data set [2] concerns fall armyworm (Spodoptera frugiperda). As to the kind of experiment: Test B: control of fall armyworm on corn (maize) plant, foliar spray. To be noted: sprayed at 50 ppm; 1-day-old larvae on corn; replicated three times. The procedure: as §1
For evaluating control of fall armyworm (Spodoptera frugiperda) the test unit consisted of a small open container with a 4-5-day-old corn (maize) plant inside. This was pre-infested (using a core sampler) with 10-15 1-day-old larvae on a piece of insect diet. Test compounds were formulated and sprayed at 50 ppm as described for Test A and replicated three times. After spraying, the test units were maintained in a growth chamber and then the control efficacy was rated for each test unit as described for Test A.

Data set [3] concerns diamondback moth (Plutella xylostella). Put plainly: Test A: control of diamondback moth on radish plant, foliar spray. The note with it: sprayed at 50 ppm; neonate larvae on radish; assessed after 6 days; replicated three times.
From the text: For evaluating control of diamondback moth (Plutella xylostella) the test unit consisted of a small open container with a 12-14-day-old radish plant inside. This was pre-infested with about 50 neonate larvae that were dispensed into the test unit via corn-cob grits using a bazooka inoculator. The larvae moved onto the test plant after being dispensed into the test unit.
as §1

`O=C(NCCSCC(F)(F)F)c1ccc(C2=NOC(c3cccc(C(F)(F)F)c3)(C(F)(F)F)C2)c2ccccc12` (racemic) [Compound 22]: the “control efficacy (feeding damage or mortality): very good to excellent levels” value (from here on “control efficacy”) in data set [1] (sprayed at 50 ppm), in data set [1] (sprayed at 250 ppm), in data set [2] and in data set [3] was 20% or less feeding damage or 80% or more mortality in each case.

Regarding `O=C(CNC(=O)c1ccc(C2=NOC(c3cc(Cl)cc(Cl)c3)(C(F)(F)F)C2)c2ccccc12)NCC1CC1` (stereo not shown) [Compound 44], the “control efficacy” value in data set [1] (sprayed at 50 ppm), in data set [1] (sprayed at 250 ppm), in data set [2] and in data set [3] was 20% or less feeding damage or 80% or more mortality each time.

Take `COCCNC(=O)CNC(=O)c1ccc(C2=NOC(c3cc(Cl)cc(Cl)c3)(C(F)(F)F)C2)c2ccccc12` (stereo not shown) [Compound 47]: the “control efficacy” value in data set [1] (sprayed at 50 ppm), in data set [1] (sprayed at 250 ppm), in data set [2] and in data set [3] was 20% or less feeding damage or 80% or more mortality in each case.

With `CSCCNC(=O)CNC(=O)c1ccc(C2=NOC(c3cc(Cl)c(Cl)c(Cl)c3)(C(F)(F)F)C2)c2ccccc12` (stereo not shown) [Compound 49], the “control efficacy” value in data set [1] (sprayed at 250 ppm), in data set [2] and in data set [3] was 20% or less feeding damage or 80% or more mortality throughout.

With `O=C(CNC(=O)c1ccc(C2=NOC(c3cc(Cl)cc(Cl)c3)(C(F)(F)F)C2)c2ccccc12)NC1CC1` (stereo not shown) [Compound 50], the “control efficacy” value in data set [1] (sprayed at 50 ppm), in data set [1] (sprayed at 250 ppm), in data set [2] and in data set [3] was 20% or less feeding damage or 80% or more mortality in each case.

As to `C[C@@H](NC(=O)c1ccc(C2=NOC(c3cc(Cl)cc(Cl)c3)(C(F)(F)F)C2)c2ccccc12)C(=O)NC1CC1` (stereo partly shown) [Compound 53], the “control efficacy” value in data set [1] (sprayed at 50 ppm), in data set [1] (sprayed at 250 ppm), in data set [2] and in data set [3] was 20% or less feeding damage or 80% or more mortality in each case.

Turning to `O=C(CNC(=O)c1ccc(C2=NOC(c3cc(C(F)(F)F)cc(C(F)(F)F)c3)(C(F)(F)F)C2)c2ccccc12)NC1CC1` (stereo not shown) [Compound 55], the “control efficacy” value in data set [1] (sprayed at 50 ppm), in data set [1] (sprayed at 250 ppm), in data set [2] and in data set [3] was 20% or less feeding damage or 80% or more mortality each time.

With `C[C@@H](NC(=O)c1ccc(C2=NOC(c3cc(C(F)(F)F)cc(C(F)(F)F)c3)(C(F)(F)F)C2)c2ccccc12)C(=O)NC1CC1` (stereo partly shown) [Compound 64], the “control efficacy” value in data set [1] (sprayed at 50 ppm), in data set [1] (sprayed at 250 ppm), in data set [2] and in data set [3] was 20% or less feeding damage or 80% or more mortality each time.

`C[C@@H](NC(=O)c1ccc(C2=NOC(c3cc(C(F)(F)F)cc(C(F)(F)F)c3)(C(F)(F)F)C2)c2ccccc12)C(N)=O` (stereo partly shown) [Compound 65]: the “control efficacy” value in data set [1] (sprayed at 50 ppm), in data set [2] and in data set [3] was 20% or less feeding damage or 80% or more mortality each time.

Turning to `C[C@@H](NC(=O)c1ccc(C2=NOC(c3cc(C(F)(F)F)cc(C(F)(F)F)c3)(C(F)(F)F)C2)c2ccccc12)C(=O)NCC1CC1` (stereo partly shown) [Compound 66], the “control efficacy” value in data set [1] (sprayed at 50 ppm), in data set [1] (sprayed at 250 ppm), in data set [2] and in data set [3] was 20% or less feeding damage or 80% or more mortality each time.

As to `CC(NC(=O)c1ccc(C2=NOC(c3cc(C(F)(F)F)cc(C(F)(F)F)c3)(C(F)(F)F)C2)c2ccccc12)C(=O)NC1CC1` (stereo not shown) [Compound 67], the “control efficacy” value in data set [1] (sprayed at 50 ppm), in data set [1] (sprayed at 250 ppm), in data set [2] and in data set [3] was 20% or less feeding damage or 80% or more mortality in each case.

For `CC(NC(=O)c1ccc(C2=NOC(c3cc(C(F)(F)F)cc(C(F)(F)F)c3)(C(F)(F)F)C2)c2ccccc12)C(=O)NCC1CC1` (stereo not shown) [Compound 68], the “control efficacy” value in data set [1] (sprayed at 50 ppm), in data set [1] (sprayed at 250 ppm), in data set [2] and in data set [3] was 20% or less feeding damage or 80% or more mortality throughout.

Take `CC(NC(=O)c1ccc(C2=NOC(c3cc(C(F)(F)F)cc(C(F)(F)F)c3)(C(F)(F)F)C2)c2ccccc12)C(N)=O` (stereo not shown) [Compound 69]: the “control efficacy” value in data set [1] (sprayed at 50 ppm), in data set [2] and in data set [3] was 20% or less feeding damage or 80% or more mortality in each case.

As for `NC(=O)CNC(=O)c1ccc(C2=NOC(c3cc(C(F)(F)F)cc(C(F)(F)F)c3)(C(F)(F)F)C2)c2ccccc12` (stereo not shown) [Compound 70], the “control efficacy” value in data set [1] (sprayed at 50 ppm), in data set [2] and in data set [3] was 20% or less feeding damage or 80% or more mortality in each case.

On to `O=C(CNC(=O)c1ccc(C2=NOC(c3cc(C(F)(F)F)cc(C(F)(F)F)c3)(C(F)(F)F)C2)c2ccccc12)NCC1CC1` (stereo not shown) [Compound 71], for which the “control efficacy” value in data set [1] (sprayed at 50 ppm), in data set [2] and in data set [3] was 20% or less feeding damage or 80% or more mortality each time.
